From patent publication US4678799A, “1,2(1,4)-dimethyl-4(2)-(2-hydroxyethyl)-5-nitro-imidazole antiprotozoal agents with reduced mutagenicity” (Merck & Co., Inc., priority 1984, dated 1987)
In brackets after ≈: the same amount, converted by molar mass. Where two headings read alike, the source gives them in different places.

How the values were obtained:
[1] = system: T. foetus; assay: In vitro antiprotozoal activity against T. foetus; format: cell-based; conditions: Tritrichomonas foetus, read-out: Activity IC50 T. foetus
Text: (§1) Several 5-nitroimidazoles have been tested for in vitro antiprotozoal activity against T. foetus, T. vaginalis, and G. lamblia.

[2] = system: T. vaginalis; assay: In vitro antiprotozoal activity against T. vaginalis; format: cell-based; conditions: Trichomonas vaginalis, read-out: Activity IC50 T. vaginalis
Text: as §1

[3] = system: G. lamblia; assay: In vitro antiprotozoal activity against G. lamblia; format: cell-based; conditions: Giardia duodenalis, read-out: Activity IC50 G. lamblia
Text: as §1

[4] = system: Mammalian rat hepatocyte; assay: DNA single strand breaks in mammalian rat hepatocytes (genotoxicity); conditions: % relative to parent compound not containing 4-substituent
Text: as §1
^b Mammalian rat hepatocyte single strand DNA breaks expressed as %
relative to parent compound not containing 4substituent.

[5] = system: protozoa and bacteria; conditions: U.S. Pat. No. 3,646,027; cited from earlier work
[6] = background; cited from earlier work
[7] = background; cited from earlier work; remark: listed apart in the source

Row | IC50 ([1]; in vitro, T. foetus) [µg/mL] | IC50 ([2]; in vitro, T. vaginalis) [µg/mL] | IC50 ([3]; in vitro, G. lamblia) [µg/mL] | SMILES | Extent of DNA Damage [4] [%] | IC50 [1] [µg/mL] | IC50 [2] [µg/mL] | IC50 [3] [µg/mL] | activity against protozoa and bacteria [5] | mutagenicity [6] | drug residual levels [7]
1 | 5.25 (≈ 28.4 µM) | 9 (≈ 48.6 µM) | 25 (≈ 135 µM) | Cc1nc(CCO)c([N+](=O)[O-])n1C [Compound V] |  |  |  |  |  |  | 
2 | 1 (≈ 4.67 µM) | 1.9 (≈ 8.87 µM) | 25 (≈ 117 µM) | Cc1nc(COC(N)=O)n(C)c1[N+](=O)[O-] [III, (1,4-Dimethyl-5-nitroimidazol-2-yl)methylcarbamate] | 6 |  |  |  |  |  | 
3 | 0.43 (≈ 2.51 µM) | 0.58 (≈ 3.39 µM) | 2 (≈ 11.7 µM) | Cc1ncc([N+](=O)[O-])n1CCO [II] | 100 |  |  |  |  |  | 
4 | 1.9 (≈ 10.3 µM) | 12.5 (≈ 67.5 µM) | 25 (≈ 135 µM) | Cc1nc(CCO)n(C)c1[N+](=O)[O-] [IV, 1,4-Dimethyl-2-(2-hydroxyethyl)-5-nitroimidazole] |  |  |  |  |  |  | 
5 |  |  |  | Cn1c([N+](=O)[O-])cnc1COC(N)=O [I] | 100 | 0.42 (≈ 2.1 µM) | 0.54 (≈ 2.7 µM) | 0.9 (≈ 4.5 µM) | potent | strong mutagenicity | high drug residual levels
